Experiments:
[1] = biological target: T1, JAK1 (Homo sapiens, UniProt P23458); assay: JAK1 enzyme inhibition test (LANCE method); type: biochemical; conditions: test compound 1 μM; read-out: Inhibitory rate (%) JAK1 1 μM
T1 construct: purchased Invitrogen
Method in brief: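 TR-FRET (LANCE) kinase assay using JAK1 at 187.5 ng/mL, ULight-JAK1 peptide at 300 nM and ATP at 150 μM, given as solution concentrations before mixing. Buffer was 50 mM HEPES pH 7.5 with 10 mM MgCl2 and 2 mM DTT, and the reaction ran 1 h at room temperature. Eu anti-phosphotyrosine signal at 665 nm was expressed relative to a no-enzyme well, taken as 100% inhibition.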

[2] = biological target: T2, Tyk2 (Homo sapiens, UniProt P29597); assay: Tyk2 enzyme inhibition test (LANCE method); type: biochemical; conditions: test compound 1 μM; read-out: Inhibitory rate (%) Tyk2 1 μM
T2 construct: purchased Invitrogen
T2 sequence (P29597 whole entry): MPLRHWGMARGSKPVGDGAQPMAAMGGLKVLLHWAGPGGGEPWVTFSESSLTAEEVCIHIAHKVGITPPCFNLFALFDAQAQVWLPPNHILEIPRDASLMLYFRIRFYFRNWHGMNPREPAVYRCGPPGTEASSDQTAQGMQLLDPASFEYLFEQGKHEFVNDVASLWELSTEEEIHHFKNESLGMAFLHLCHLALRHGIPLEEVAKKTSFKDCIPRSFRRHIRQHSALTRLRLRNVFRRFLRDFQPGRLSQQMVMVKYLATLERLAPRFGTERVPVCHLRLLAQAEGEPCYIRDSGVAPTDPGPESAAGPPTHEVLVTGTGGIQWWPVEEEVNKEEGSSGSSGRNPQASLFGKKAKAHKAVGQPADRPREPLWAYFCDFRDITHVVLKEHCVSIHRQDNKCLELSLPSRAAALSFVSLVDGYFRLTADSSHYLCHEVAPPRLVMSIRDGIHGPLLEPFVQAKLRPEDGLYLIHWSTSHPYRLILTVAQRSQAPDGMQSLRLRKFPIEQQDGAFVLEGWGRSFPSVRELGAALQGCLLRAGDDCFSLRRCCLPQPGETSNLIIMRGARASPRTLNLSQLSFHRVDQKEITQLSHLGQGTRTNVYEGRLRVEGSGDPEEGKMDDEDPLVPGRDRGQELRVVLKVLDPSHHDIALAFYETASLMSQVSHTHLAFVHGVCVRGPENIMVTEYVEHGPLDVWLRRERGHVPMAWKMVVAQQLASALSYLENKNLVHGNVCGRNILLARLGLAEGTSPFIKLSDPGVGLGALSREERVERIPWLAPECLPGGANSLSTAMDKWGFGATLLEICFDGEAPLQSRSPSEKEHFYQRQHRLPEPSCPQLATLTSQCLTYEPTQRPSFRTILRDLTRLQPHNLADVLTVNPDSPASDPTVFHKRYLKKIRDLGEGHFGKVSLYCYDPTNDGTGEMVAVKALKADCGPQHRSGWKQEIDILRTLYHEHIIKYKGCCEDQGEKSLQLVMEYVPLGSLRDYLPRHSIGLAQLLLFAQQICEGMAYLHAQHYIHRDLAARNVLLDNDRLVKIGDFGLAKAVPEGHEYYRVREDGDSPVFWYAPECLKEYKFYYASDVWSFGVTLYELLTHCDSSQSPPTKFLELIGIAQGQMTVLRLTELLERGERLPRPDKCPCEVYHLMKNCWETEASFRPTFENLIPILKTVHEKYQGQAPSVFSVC
Method in brief: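 Recombinant Tyk2 (375 ng/mL stock) with ULight-JAK1 peptide (300 nM stock) and ATP (30 μM stock) in HEPES pH 7.5/MgCl2/EGTA/DTT buffer, 1 h at room temperature. Stopped with EDTA plus Eu-anti-phosphotyrosine antibody; TR-FRET read at 665 nm after 1 h. No-enzyme wells define 100% inhibition.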

T1 sequence (P23458 whole entry): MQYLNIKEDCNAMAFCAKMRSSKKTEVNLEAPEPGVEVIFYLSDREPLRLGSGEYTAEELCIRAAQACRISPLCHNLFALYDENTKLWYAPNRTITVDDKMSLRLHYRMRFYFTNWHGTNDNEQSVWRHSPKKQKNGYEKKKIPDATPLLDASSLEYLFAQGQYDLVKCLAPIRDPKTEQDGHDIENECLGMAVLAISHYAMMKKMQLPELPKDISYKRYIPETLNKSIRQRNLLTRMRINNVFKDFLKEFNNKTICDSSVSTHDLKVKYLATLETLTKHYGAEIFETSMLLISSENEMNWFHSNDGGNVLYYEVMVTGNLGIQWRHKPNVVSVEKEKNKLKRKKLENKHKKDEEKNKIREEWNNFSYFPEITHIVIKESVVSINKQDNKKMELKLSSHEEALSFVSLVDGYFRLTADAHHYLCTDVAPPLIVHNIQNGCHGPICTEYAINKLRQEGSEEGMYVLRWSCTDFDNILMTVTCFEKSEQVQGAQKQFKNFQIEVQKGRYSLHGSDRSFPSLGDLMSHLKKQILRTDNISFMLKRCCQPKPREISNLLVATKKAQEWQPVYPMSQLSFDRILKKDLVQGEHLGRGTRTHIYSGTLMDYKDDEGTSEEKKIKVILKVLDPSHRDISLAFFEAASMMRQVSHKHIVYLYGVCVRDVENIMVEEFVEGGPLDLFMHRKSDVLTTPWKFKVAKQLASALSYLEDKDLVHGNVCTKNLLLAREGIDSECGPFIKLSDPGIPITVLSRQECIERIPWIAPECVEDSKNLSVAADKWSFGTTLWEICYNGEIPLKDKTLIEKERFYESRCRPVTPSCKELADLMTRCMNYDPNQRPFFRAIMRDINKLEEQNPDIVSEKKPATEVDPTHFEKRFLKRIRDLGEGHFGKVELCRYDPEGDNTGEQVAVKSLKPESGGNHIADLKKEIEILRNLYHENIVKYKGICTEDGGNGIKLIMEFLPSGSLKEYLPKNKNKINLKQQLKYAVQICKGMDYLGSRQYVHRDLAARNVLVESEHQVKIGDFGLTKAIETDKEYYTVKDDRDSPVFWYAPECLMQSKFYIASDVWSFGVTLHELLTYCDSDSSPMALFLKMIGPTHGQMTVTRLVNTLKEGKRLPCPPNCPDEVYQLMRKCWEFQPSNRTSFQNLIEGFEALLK

inhibition at 1 µM [1] [%] | inhibition at 1 µM [2] [%] | Compound
93 | 99 | N#Cc1cccc(F)c1-n1nc(-c2ccc(N3CCOCC3)cc2)c2c(=O)[nH]ccc21 [Example 305, 3-fluoro-2-(3-(4-(morpholin-4-yl)phenyl)-4-oxo-4,5-dihydro-1H-pyrazolo[4,3-c]pyridin-1-yl)benzonitrile]
90 | 98 | N#Cc1cccc(F)c1-n1nc(-c2ccc(N3CCOCC3)nc2)c2c(=O)[nH]ccc21 [Example 306, 3-fluoro-2-(3-(6-(morpholin-4-yl)pyridin-3-yl)-4-oxo-4,5-dihydro-1H-pyrazolo[4,3-c]pyridin-1-yl)benzonitrile]
92 | 99 | CNC(=O)c1ccc(-c2nn(-c3c(F)cccc3C#N)c3cc[nH]c(=O)c23)cc1 [Example 307, 4-(1-(2-cyano-6-fluorophenyl)-4-oxo-4,5-dihydro-1H-pyrazolo[4,3-c]pyridin-3-yl)-N-methylbenzamide]
91 | 98 | O=c1[nH]ccc2c1c(-c1ccc(N3CCOCC3)cc1)nn2-c1c(F)cc(F)cc1F [Example 308, 3-(4-(morpholin-4-yl)phenyl)-1-(2,4,6-trifluorophenyl)-1,5-dihydro-4H-pyrazolo[4,3-c]pyridin-4-one]
93 | 99 | O=c1[nH]ccc2c1c(-c1ccc(N3CCOCC3)nc1)nn2-c1c(F)cccc1F [Example 309, 1-(2,6-difluorophenyl)-3-(6-(morpholin-4-yl)pyridin-3-yl)-1,5-dihydro-4H-pyrazolo[4,3-c]pyridin-4-one]
93 | 100 | CNC(=O)C1CCN(c2ccc(-c3nn(-c4c(F)cccc4F)c4cc[nH]c(=O)c34)cc2)CC1 [Example 310, 1-(4-(1-(2,6-difluorophenyl)-4-oxo-4,5-dihydro-1H-pyrazolo[4,3-c]pyridin-3-yl)phenyl)-N-methylpiperidine-4-carboxamide]
95 | 99 | CS(=O)(=O)N1CCN(c2ccc(-c3nn(-c4c(F)cccc4F)c4cc[nH]c(=O)c34)cc2)CC1 [Example 311, 1-(2,6-difluorophenyl)-3-(4-(4-(methylsulfonyl)piperazin-1-yl)phenyl)-1,5-dihydro-4H-pyrazolo[4,3-c]pyridin-4-one]
94 | 99 | O=C(CO)N1CCN(c2ccc(-c3nn(-c4c(F)cccc4F)c4cc[nH]c(=O)c34)cc2)CC1 [Example 312, 1-(2,6-difluorophenyl)-3-(4-(4-glycoloylpiperazin-1-yl)phenyl)-1,5-dihydro-4H-pyrazolo[4,3-c]pyridin-4-one]
95 | 100 | COCC(=O)N1CCN(c2ccc(-c3nn(-c4c(F)cccc4F)c4cc[nH]c(=O)c34)cc2)CC1 [Example 313, 1-(2,6-difluorophenyl)-3-(4-(4-(methoxyacetyl)piperazin-1-yl)phenyl)-1,5-dihydro-4H-pyrazolo[4,3-c]pyridin-4-one]
95 | 99 | CC1(C)CCCC1n1nc(-c2ccc(N3CCOCC3)cc2)c2c(=O)[nH]ccc21 (centres unmarked) [Example 314, 1-(2,2-dimethylcyclopentyl)-3-(4-(morpholin-4-yl)phenyl)-1,5-dihydro-4H-pyrazolo[4,3-c]pyridin-4-one]
97 | 98 | N#Cc1cccc(F)c1-n1nc(-c2cn[nH]c2)c2c(=O)[nH]ccc21 [Example 315, 3-fluoro-2-(4-oxo-3-(1H-pyrazol-4-yl)-4,5-dihydro-1H-pyrazolo[4,3-c]pyridin-1-yl)benzonitrile]
99 | 99 | CC(=O)N1CCC(c2ccc(-c3nn(-c4c(F)cccc4F)c4cc[nH]c(=O)c34)cc2)C(F)(F)C1 (centres unmarked) [Example 316, 3-(4-(1-acetyl-3,3-difluoropiperidin-4-yl)phenyl)-1-(2,6-difluorophenyl)-1,5-dihydro-4H-pyrazolo[4,3-c]pyridin-4-one]
96 | 99 | O=c1[nH]ccc2c1c(-c1ccc(N3CCOCC3)cc1)nn2C1CCCCC1(F)F (centres unmarked) [Example 317, 1-(2,2-difluorocyclohexyl)-3-(4-(morpholin-4-yl)phenyl)-1,5-dihydro-4H-pyrazolo[4,3-c]pyridin-4-one]

Source: patent US9371320B2, “Heterocyclic compound” (TAKEDA PHARMACEUTICAL COMPANY LIMITED, priority 2012, dated 2016)
